The values below come from patent US20250026724A1, “(1,4,5-TRISUBSTITUTED 1H-PYRAZOL-3-YL)OXY-2-ALKYLTHIOALKYL ACIDS AND -ALKYL ACID DERIVATIVES, SALTS THEREOF AND USE THEREOF AS ACTIVE HERBICIDAL INGREDIENTS” (BAYER AKTIENGESELLSCHAFT, priority 2021, published 2025).

The structures appear in SMILES notation.

Common to all, as to assay type: in vivo
Data set [1] has as its system Abutilon theophrasti (ABUTH). The data set can be described thus: Post-emergence herbicidal action, greenhouse pot trial. As to conditions: Abutilon theophrasti, 504 h, visual rating after about 3 weeks; for pest or weed control at 80 g/ha: read-out: Post-emergence effect at 80 g/ha against ABUTH in %; for pest or weed control at 320 g/ha: read-out: Post-emergence effect at 320 g/ha against ABUTH in %. In short, it runs like this:
(§1)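 Using WP or EC formulations applied at the one-leaf stage, compounds were sprayed onto weeds at 320 g/ha or lower. Percent activity was estimated visually about three weeks later, with dead plants scored 100% and control-like plants 0%.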

Data set [2] relates to Alopecurus myosuroides (ALOMY). The data set is described as above. As to conditions: visual rating after about 3 weeks; for pest or weed control at 320 g/ha: Alopecurus myosuroides, 504 h, read-out: Post-emergence effect at 320 g/ha against ALOMY in %. In short, it runs like this: as §1
Data set [3] deals with Amaranthus retroflexus (AMARE). The data set is described as above. As to conditions: visual rating after about 3 weeks; for pest or weed control at 80 g/ha / pest or weed control at 320 g/ha: Amaranthus retroflexus, 504 h; for pest or weed control at 80 g/ha: read-out: Post-emergence effect at 80 g/ha against AMARE in %; for pest or weed control at 320 g/ha: read-out: Post-emergence effect at 320 g/ha against AMARE in %. In short, it runs like this: as §1

In data set [4] the test system is Avena fatua (AVEFA). The data set is described as above. As to conditions: visual rating after about 3 weeks; for pest or weed control at 320 g/ha: Avena fatua, 504 h, read-out: Post-emergence effect at 320 g/ha against AVEFA in %. An outline of the steps:
as §1

Data set [5] concerns Bassia scoparia (KCHSC). The description is as above. As to conditions: 320 g/ha. An outline of the steps: as §1
Data set [6] has as its system Digitaria sanguinalis (DIGSA). The data set is described as above. As to conditions: visual rating after about 3 weeks; for pest or weed control at 320 g/ha: Digitaria sanguinalis, 504 h, read-out: Post-emergence effect at 320 g/ha against DIGSA in %. In short, it runs like this: as §1
For data set [7], the system named is Echinochloa crus-galli (ECHCG). The description is as above. As to conditions: Echinochloa crus-galli, 504 h, visual rating after about 3 weeks; for pest or weed control at 80 g/ha: read-out: Post-emergence effect at 80 g/ha against ECHCG in %; for pest or weed control at 320 g/ha: read-out: Post-emergence effect at 320 g/ha against ECHCG in %. In short, it runs like this:
as §1

The subject of data set [8] is Lolium rigidum (LOLRI). Described as above. As to conditions: visual rating after about 3 weeks; for pest or weed control at 320 g/ha: Lolium rigidum, 504 h, read-out: Post-emergence effect at 320 g/ha against LOLRI in %. In short, it runs like this: as §1
For data set [9], the system named is Matricaria inodora (MATIN). The description is as above. As to conditions: Tripleurospermum inodorum, 504 h, visual rating after about 3 weeks; for pest or weed control at 80 g/ha: read-out: Post-emergence effect at 80 g/ha against MATIN in %; for pest or weed control at 320 g/ha: read-out: Post-emergence effect at 320 g/ha against MATIN in %. In short, it runs like this:
as §1

For data set [10], the system named is Pharbitis purpurea (PHBPU). The description is as above. As to conditions: visual rating after about 3 weeks; for pest or weed control at 80 g/ha / pest or weed control at 320 g/ha: Ipomoea purpurea, 504 h; for pest or weed control at 80 g/ha: read-out: Post-emergence effect at 80 g/ha against PHBPU in %; for pest or weed control at 320 g/ha: read-out: Post-emergence effect at 320 g/ha against PHBPU in %. In short, it runs like this:
as §1

Data set [11] concerns Polygonum convolvulus (POLCO). The description is as above. As to conditions: visual rating after about 3 weeks; for pest or weed control at 80 g/ha / pest or weed control at 320 g/ha: Fallopia convolvulus, 504 h; for pest or weed control at 80 g/ha: read-out: Post-emergence effect at 80 g/ha against POLCO in %; for pest or weed control at 320 g/ha: read-out: Post-emergence effect at 320 g/ha against POLCO in %. In short, it runs like this: as §1

Data set [12] relates to Setaria viridis (SETVI). Described as above. As to conditions: visual rating after about 3 weeks; for pest or weed control at 320 g/ha: Setaria viridis, 504 h, read-out: Post-emergence effect at 320 g/ha against SETVI in %. In short, it runs like this:
as §1

Data set [13] relates to Viola tricolor (VIOTR). The data set is described as above. As to conditions: Viola tricolor, 504 h, read-out: Post-emergence effect against VIOTR. In short, it runs like this: as §1
For data set [14], the system named is Triticum aestivum (TRZAS). The data set can be described thus: Post-emergence crop plant compatibility, greenhouse pot trial. As to conditions: in vivo. How it is done: Seeds of monocotyledonous and dicotyledonous weeds and crop plants are placed in sandy loam in plastic or organic planting pots, covered with soil and cultivated in a greenhouse under controlled growth conditions. 2 to 3 weeks after sowing, the trial plants are treated at the one-leaf stage. The compounds of the invention, formulated in the form of wettable powders (WP) or as emulsion concentrates (EC), are then sprayed onto the green parts of the plants as aqueous suspension or emulsion with addition of 0.5% additive at a water application rate equivalent to 600 l/ha. After about 3 weeks of keeping the trial plants in the greenhouse under optimum growth conditions, the effect of the preparations is rated visually in comparison to untreated controls. For example, 100% activity=the plants have died, 0% activity=like control plants.
The observed effects on selected crop plants are reported here in comparison to the untreated controls (values in %). The appendices “a”, “b” and “c” give differentiation by dosage used with otherwise the same useful plants tested.
As shown by results from Tables B1 to B19, inventive compounds of the general formula (I) in the case of post-emergence treatment have good herbicidal efficacy against harmful plants, for example Abutilon theophrasti (ABUTH), Alopecurus myosuroides (ALOMY), Amaranthus retroflexus (AMARE), Avena fatua (AVEFA), Digitaria sanguinalis (DIGSA), Echinochloa crus-galli (ECHCG), Bassia scoparia (KCHSC), Lolium rigidum (LOLRI), Matricaria inodora (MATIN), Pharbitis purpurea (PHBPU), Polygonum convolvulus (POLCO), Setaria viridis (SETVI), Veronica persica (VERPE) and Viola tricolor (VIOTR) at an application rate of 320 g of active substance or less per hectare, and good crop plant compatibility in the case of organisms such as Oryza sativa (ORYSA), Zea mays (ZEAMX), Brassica napus (BRSNW), Glycine max (GLXMA) and Triticum aestivum (TRZAS) at an application rate of 320 g or less per hectare.

As for `COC(=O)C(Oc1nn(-c2ncccc2F)c(-c2ccc(F)nc2)c1Br)SC` (single isomer, unassigned) [Example I-26], the pest or weed control at 80 g/ha worked out at 80% in data set [1]; 80% in data set [3]; 90% in data set [7]; 90% in data set [9]; 80% in data set [10]; 80% in [11]. In [13], the pest or weed control at 80 g/ha was determined as 90%. The pest or weed control at 320 g/ha in data set [1] worked out at 80%; in [2], 90%; in data set [3], 90%; in data set [4] it was 90%; in data set [6] it was 90%; in [7] it was 90%. In addition, the pest or weed control at 320 g/ha in data set [8] was 90%; in [9] it was 90%; in data set [10], 90%; in data set [11], 90%; in [12], 80%; in [13] it was 90%. Besides, the “Post-emergence effect at 80 g/ha against ALOMY in %” value in [2] (80 g/ha) is reported as 80%. Also, in data set [4] (80 g/ha), the “Post-emergence effect at 80 g/ha against AVEFA in %” value turned out to be 80%. In addition, in [5], the “Post-emergence effect against KCHSC” value is reported as 80%. Also, in data set [6], the “Post-emergence effect at 80 g/ha against DIGSA in %” value stood at 90%. For the same compound, in data set [10], the “Post-emergence effect at 20 g/ha against PHBPU in %” value was 80%. For the same compound, the “Post-emergence effect at 20 g/ha against POLCO in %” value in data set [11] (20 g/ha) came out at 80%.

For `CCOC(=O)C(Oc1nn(-c2ncccc2F)c(-c2ccc(F)nc2)c1Br)SC` (single isomer, unassigned) [Example I-28], the pest or weed control at 80 g/ha in data set [1] was found to be 80%; in [3] it was 90%; in data set [7], 90%; in [9], 80%; in data set [10], 90%; in [11], 90%. Further, in [13], the pest or weed control at 80 g/ha is 80%. The pest or weed control at 320 g/ha is 80% in data set [1]; 90% in data set [2]; 90% in data set [3]; 80% in data set [4]; 90% in [6]; 90% in [7]. The pest or weed control at 320 g/ha in data set [8], in data set [9], in data set [10], in data set [11], in data set [12] and in data set [13] was 90% each time. In addition, the “Post-emergence effect at 20 g/ha against AMARE in %” value in [3] (20 g/ha) turned out to be 80%. Moreover, the “Post-emergence effect against KCHSC” value in [5] was 80%. The “Post-emergence effect at 80 g/ha against DIGSA in %” value in data set [6] worked out at 80%. Also, in [8] (80 g/ha), the “Post-emergence effect at 80 g/ha against LOLRI in %” value was determined as 90%. The “Post-emergence effect at 20 g/ha against PHBPU in %” value in data set [10] is 80%. Besides, the “Post-emergence effect at 80 g/ha against SETVI in %” value in [12] came to 80%.

Take `CCOC(=O)C(Oc1nn(-c2cc(F)ccc2F)c(-c2cncc(F)c2)c1Br)SC` (centres unmarked) [Example I-03, ethyl {[4-bromo-1-(2,5-difluorophenyl)-5-(5-fluoropyridin-3-yl)-1H-pyrazol-3-yl]oxy}(methylsulfanyl)acetate]: the pest or weed control at 320 g/ha in [1] was 80%; in [6] it was 80%; in data set [7] it was 90%; in [9], 90%; in [10], 80%; in data set [12] it was 90%. The pest or weed control at 320 g/ha in [13] came out at 90%. Moreover, the pest or weed control at 80 g/ha in data set [9] is 80%; in data set [13] it was 90%. Moreover, in data set [12], the “Post-emergence effect at 80 g/ha against SETVI in %” value amounted to 80%. Moreover, the pest or weed control at 20 g/ha in data set [13] (20 g/ha) was 80%. Also, the “Post-emergence effect at 320 g/ha against TRZAS in %” value in data set [14] is 20%.

For the compound `CSC(Oc1nn(-c2cc(F)ccc2F)c(-c2cncc(F)c2)c1Br)C(=O)O` (centres unmarked) [Example I-06], the pest or weed control at 320 g/ha in [6] was 80%; in data set [7], 90%; in data set [9], 90%; in data set [10], 80%; in data set [13] it was 90%. In data set [13], the pest or weed control at 80 g/ha was determined as 80%. In addition, in data set [14], the “Post-emergence effect at 320 g/ha against TRZAS in %” value was 20%.

`CCOC(=O)C(Oc1nn(-c2ncccc2F)c(-c2ccccc2)c1Br)SC` (centres unmarked) [Example I-11]: the pest or weed control at 320 g/ha turned out to be 80% in [1]; 90% in data set [3]; 80% in data set [7]; 80% in data set [9]; 80% in data set [11]. Further, the pest or weed control at 80 g/ha in [3] and in data set [11] was 80% in each case. In addition, the “Post-emergence effect at 320 g/ha against TRZAS in %” value in data set [14] turned out to be 0%.
